A word on the IC50: it is the point on the concentration scale where inhibition reaches its midpoint. Broadly, the logP is a log measure of how a compound divides between an organic and an aqueous phase.

The source of these data is ChEMBL document CHEMBL1141372, “Synthesis and pharmacophore modeling of naphthoquinone derivatives with cytotoxic activity in human promyelocytic leukemia HL-60 cell line” (J Med Chem, 2007).

For data set [1], the system named is HL-60. The data set is described as follows: Cytotoxicity against human promyelocytic leukemia HL60 cell line by MTT assay. The format is cell-based. In general terms: Formazan colour is commonly taken as a measure of viable cells.
Data set [2] in a line: Partition coefficient, log P of the compound. The note with it: octanol/water. The format is physicochemical.

For `CC(C)CCC1=C(O)C(=O)c2ccccc2C1=O`, in data set [1], the half-maximal inhibitory concentration (IC50) was 62.1 µM. Besides, the logP in data set [2] (read-out: LogP) was 4.1.

`CC(=O)OC1CC2=C(OC1(C)C)c1ccccc1C(=O)C2=O` (configuration not stated) yielded an IC50 in data set [1] of 0.68 µM. Further, the logP in data set [2] (read-out: LogP) stood at 3.

`CC1(C)OC2=C(CC1Br)C(=O)C(=O)c1ccccc12` (configuration not stated) displayed an IC50 in data set [1] of 0.13 µM. Further, in data set [2] (read-out: LogP), the logP turned out to be 3.6.

For `CC1(C)OC2=C(C=C1Br)C(=O)C(=O)c1ccccc12`, in data set [1], 0.2 µM corresponded to half-maximal inhibition (IC50). The log partition coefficient (logP) in data set [2] (read-out: LogP) turned out to be 3.5.

The compound `CC1(C)Oc2c(c3nccnc3c3ccccc23)CC1O` (configuration not stated) came in with a half-maximal inhibitory concentration (IC50) in data set [1] of 28.2 µM. The logP in data set [2] (read-out: LogP) amounted to 3.2.

For `CC1(C)OC2=C(C(=O)C(=O)c3ccccc32)C(O)C1Br` (configuration not stated), half-maximal inhibition in data set [1] (IC50) required 0.12 µM. Moreover, in data set [2] (read-out: LogP), the logP came to 3.1.

With `CC1(C)C[C@H](O)C2=C(O1)c1ccccc1C(=O)C2=O`, the IC50 in data set [1] is 0.57 µM. In addition, the logP in data set [2] (read-out: LogP) amounted to 2.2.

The compound `CO[C@@H](C(=O)O[C@@H]1CC2=C(OC1(C)C)c1ccccc1C(=O)C2=O)c1ccccc1` displayed an IC50 in data set [1] of 0.26 µM. The logP in data set [2] (read-out: LogP) came to 5.

Consider `CC(C)=CCC1=C(O[Si](C)(C)C(C)(C)C)C(=O)c2ccccc2C1=O`, for which the half-inhibitory concentration (IC50) in data set [1] turned out to be 11.4 µM. Further, in data set [2] (read-out: LogP), the logP is 7.3.

As for `CC1(C)Oc2c(c3nc4c(nc3c3ccccc23)CCCC4)CC1O` (configuration not stated), in data set [1], 13.4 µM corresponded to half-maximal inhibition (IC50). For the same compound, the log partition coefficient (logP) in data set [2] (read-out: LogP) was found to be 4.8.

On to `CC1(C)OC2=C(CC1O)C(=O)c1ccccc1C2=O` (configuration not stated), for which the IC50 in data set [1] was 1.35 µM. For the same compound, the logP in data set [2] (read-out: LogP) came out at 2.7.

As for `CC1(C)OC2=C(CC1Br)C(=O)c1ccccc1C2=O` (configuration not stated), the IC50 in data set [1] is 1.36 µM. The logP in data set [2] (read-out: LogP) worked out at 4.1.

Regarding `COc1cc(C(=O)OC2=C(CC=C(C)C)C(=O)c3ccccc3C2=O)cc(OC)c1OC`, in data set [1], the half-inhibitory concentration (IC50) was found to be 8.06 µM. The logP in data set [2] (read-out: LogP) was determined as 6.3.

`CC(C)(O)C1CC2=C(O1)c1ccccc1C(=O)C2=O` (configuration not stated) gave a half-maximal inhibitory concentration (IC50) in data set [1] of 1.97 µM. Moreover, the logP in data set [2] (read-out: LogP) was 1.6.

As for `CC(=O)OC1=C(CC=C(C)C)C(=O)c2ccccc2C1=O`, the IC50 in data set [1] is 4.51 µM. In addition, in data set [2] (read-out: LogP), the logP worked out at 4.5.

`CC(=O)OC1=C(CC(O)C(C)(C)O)C(=O)c2ccccc2C1=O` (configuration not stated) had an IC50 in data set [1] of 48.1 µM. In addition, in data set [2] (read-out: LogP), the logP stood at 1.8.

Consider `CC(C)CCC1=C(O)C(=O)C2=C(CCCC2)C1=O`, for which, in data set [1], the IC50 is 34.6 µM. Further, the logP in data set [2] (read-out: LogP) stood at 4.2.

`COCOC1=C(CCC(C)C)C(=O)c2ccccc2C1=O` came in with a half-maximal inhibitory concentration (IC50) in data set [1] of 53.9 µM. Also, in data set [2] (read-out: LogP), the logP was 4.4.

`CC(C)=CCC1=C2NC3CCCCC3N=C2c2ccccc2C1=O` (configuration not stated): the IC50 in data set [1] turned out to be 15.5 µM. Moreover, the logP in data set [2] (read-out: LogP) was 4.2.

Compound `CC(=O)OC1=C(CC2OC2(C)C)C(=O)c2ccccc2C1=O` (configuration not stated) displayed an IC50 in data set [1] of 1.89 µM. In data set [2] (read-out: LogP), the logP turned out to be 3.

As to `CC1(C)Oc2c(c3nccnc3c3ccccc23)CC1Br` (configuration not stated), in data set [1], the IC50 was found to be 24.1 µM. For the same compound, the logP in data set [2] (read-out: LogP) worked out at 4.8.

The compound `CC(C)(O)C1Cc2c(c3ccccc3c3nccnc23)O1` (configuration not stated) had an IC50 in data set [1] of 44.1 µM. Further, the lipophilicity (logP) in data set [2] (read-out: LogP) was 2.5.

With `CCOC1CCC2=C(O1)C(=O)c1ccccc1C2=O` (configuration not stated), the midpoint of inhibition in data set [1], the IC50, lay at 29.7 µM. The logP in data set [2] (read-out: LogP) was found to be 2.8.

On to `CC(=O)OC1=C(CC(Br)C(C)(C)Br)C(=O)c2ccccc2C1=O` (configuration not stated), for which 2.23 µM corresponded to half-maximal inhibition in data set [1] (IC50). Besides, the logP in data set [2] (read-out: LogP) was 5.1.

`CC1(C)CCc2c(c3ccccc3c3nc4c(nc23)CCCC4)O1`: in data set [1], the IC50 is no less than 100 µM. In addition, the logP in data set [2] (read-out: LogP) is 6.4.

Regarding `CO[C@@H](C(=O)O[C@H]1CC2=C(OC1(C)C)c1ccccc1C(=O)C2=O)c1ccccc1`, half-maximal inhibition in data set [1] (IC50) was put at 0.11 µM. Further, the logP in data set [2] (read-out: LogP) was determined as 5.

`CC(C)(O)C1CC(=O)c2nccnc2-c2ccccc2C(=O)O1` (configuration not stated) yielded an IC50 in data set [1] greater than 100 µM. Besides, the logP in data set [2] (read-out: LogP) is 2.4.

In the case of `CC1(C)CCC(=O)c2nccnc2-c2ccccc2C(=O)O1`, the IC50 in data set [1] turned out to be 47.1 µM. The logP in data set [2] (read-out: LogP) turned out to be 3.9.

Take `CC(C)C(=O)OC1CC2=C(OC1(C)C)c1ccccc1C(=O)C2=O` (configuration not stated): the IC50 in data set [1] was 0.24 µM. In data set [2] (read-out: LogP), the logP is 3.8.

Regarding `O=C1C2=C(OC(c3ccccc3)C2)C(=O)c2ccccc21` (configuration not stated), the IC50 in data set [1] stood at 2.65 µM. Also, the logP in data set [2] (read-out: LogP) stood at 3.7.

In turn, `CC1(C)CCC2=C(O1)c1ccccc1/C(=N/O)C2=O` gave an IC50 in data set [1] of 3.2 µM. Also, the logP in data set [2] (read-out: LogP) was determined as 4.6.

As for `Cc1ccc(CC2=C(O)C(=O)c3ccccc3C2=O)o1`, the IC50 in data set [1] was 68.2 µM. For the same compound, the logP in data set [2] (read-out: LogP) came out at 3.6.

The compound `O=C1C2=C(OC(c3ccccc3)CC2)C(=O)c2ccccc21` (configuration not stated) registered an IC50 in data set [1] of 22.9 µM. For the same compound, the logP in data set [2] (read-out: LogP) is 4.7.

In data set [1], `CC(C)(O)C1Cc2c(O)c([N+](=O)[O-])c3ccccc3c2O1` (configuration not stated) returned an IC50 of 47 µM. The logP in data set [2] (read-out: LogP) worked out at 2.7.

Compound `CC(C)(O[N+](=O)[O-])C1CC2=C(O1)C(=O)c1ccccc1C2=O` (configuration not stated) came in with an IC50 in data set [1] of 1.24 µM. The logP in data set [2] (read-out: LogP) was found to be 3.4.

With `CC(=O)OC1=C(CC(Br)C(C)(C)O)C(=O)c2ccccc2C1=O` (configuration not stated), in data set [1], the IC50 amounted to 0.52 µM. Moreover, in data set [2] (read-out: LogP), the logP worked out at 3.5.

`CC(C)=CC1=C(O)C(=O)c2ccccc2C1=O` came in with an IC50 in data set [1] of 27.7 µM. Further, the lipophilicity (logP) in data set [2] (read-out: LogP) worked out at 3.2.

In data set [1], `CC(C)(O)C1CC2=C(O1)C(=O)c1ccccc1C2=O` (configuration not stated) displayed an IC50 of 1.85 µM. Moreover, in data set [2] (read-out: LogP), the logP came out at 2.

In turn, `CCCCCCCCCCCC(=O)OC1=C(CC=C(C)C)C(=O)c2ccccc2C1=O` registered a 50% inhibitory concentration (IC50) in data set [1] of 26.3 µM. Further, the logP in data set [2] is on record as 9.9.

`CC1(C)C[C@@H](O)C2=C(O1)c1ccccc1C(=O)C2=O`: 0.55 µM corresponded to half-maximal inhibition in data set [1] (IC50). The logP in data set [2] (read-out: LogP) stood at 2.2.

As to `CC(=O)OC1Cc2c(c3ccccc3c3nc4c(nc23)CCCC4)OC1(C)C` (configuration not stated), in data set [1], inhibition was half-maximal at 24.2 µM (IC50). The logP in data set [2] (read-out: LogP) amounted to 5.7.

For `CC(C)(Br)C1CC2=C(O1)c1ccccc1C(=O)C2=O` (configuration not stated), in data set [1], half-maximal inhibition (IC50) was put at 0.7 µM. Also, in data set [2] (read-out: LogP), the logP is 3.2.

As for `CC(C)(O)C1Cc2c(c3ccccc3c3nc4c(nc23)CCCC4)O1` (configuration not stated), in data set [1], 31.9 µM corresponded to half-maximal inhibition (IC50). Moreover, in data set [2] (read-out: LogP), the logP amounted to 4.2.

As for `CCCCCCCCCCCC(=O)OC1CC2=C(OC1(C)C)c1ccccc1C(=O)C2=O` (configuration not stated), the IC50 in data set [1] came to 0.26 µM. For the same compound, the logP in data set [2] (read-out: LogP) is 8.3.

On to `CC1(C)CCc2c(c3ccccc3c3nccnc23)O1`, for which 23.7 µM corresponded to half-maximal inhibition in data set [1] (IC50). Moreover, the logP in data set [2] (read-out: LogP) came out at 4.7.

The compound `CC1(C)OC2=C(CC1OC(=O)c1ccc(C#N)cc1)C(=O)C(=O)c1ccccc12` (racemic) gave an IC50 in data set [1] of 0.13 µM. Also, the logP in data set [2] (read-out: LogP) came out at 4.7.

Regarding `CC1(C)OC2=C(CC1OC(=O)c1ccc(Br)cc1)C(=O)C(=O)c1ccccc12` (racemic), in data set [1], the IC50 came out at 0.45 µM. Moreover, in data set [2] (read-out: LogP), the logP was 5.8.

As to `CC1(C)CCC2=C(O1)C(=O)c1ccccc1C2=O` [ALPHA-LAPACHONE], the midpoint of inhibition in data set [1], the IC50, lay at 13.5 µM. Besides, in data set [2] (read-out: LogP), the logP was determined as 3.5.

With `C=C(C)C1CC2=C(O1)C(=O)c1ccccc1C2=O` (stereo not drawn) [DEHYDROISO-ALPHA-LAPACHONE], in data set [1], the IC50 turned out to be 1.46 µM. For the same compound, the log partition coefficient (logP) in data set [2] (read-out: LogP) worked out at 3.4.

`CC(C)=CCC1=C(O)C(=O)c2ccccc2C1=O` [LAPACHOL] yielded an IC50 in data set [1] of 3.18 µM. In data set [2] (read-out: LogP), the logP stood at 4.1.

In data set [1], `CC1(C)CCC2=C(O1)c1ccccc1C(=O)C2=O` [LAPACHONE] displayed an IC50 of 0.27 µM. Further, the logP in data set [2] (read-out: LogP) turned out to be 3.2.
